Tests used:
[1] = biological target: T1, SMARCA4-HiBiT HeLa cells (protein which is expressed from the SMARCA4 gene) (Homo sapiens, UniProt P51532); assay: SMARCA4 degradation assay (HiBiT-fusion HeLa cell line, 24 h, luminescence); format: cell-based
T1 construct: protein which is expressed from the SMARCA2 and SMARCA4 genes; host or cells: HeLa (SMARCA4-HiBiT engineered line)
Procedure, shortened: (§1)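 HiBiT-fusion HeLa lines, 8,000 cells/well, overnight attachment; cpd 10-pt series (typically 10 μM–300 pM), 24 h, 37° C. Lysis with LgBiT + HiBiT substrate, 10 min shaking at RT, luminescence read. DC50 from dose-response fit; % degradation also scored at 1 μM.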

[2] = biological target: T2, SMARCA2-HiBiT HeLa cells (protein which is expressed from the SMARCA2 gene) (Homo sapiens, UniProt P51531); assay: SMARCA2 degradation assay (HiBiT-fusion HeLa cell line, 24 h, luminescence); format: cell-based
T2 construct: protein which is expressed from the SMARCA2 and SMARCA4 genes; host or cells: HeLa (SMARCA2-HiBiT engineered line)
T2 sequence (P51531 whole entry, the tested form may be a part): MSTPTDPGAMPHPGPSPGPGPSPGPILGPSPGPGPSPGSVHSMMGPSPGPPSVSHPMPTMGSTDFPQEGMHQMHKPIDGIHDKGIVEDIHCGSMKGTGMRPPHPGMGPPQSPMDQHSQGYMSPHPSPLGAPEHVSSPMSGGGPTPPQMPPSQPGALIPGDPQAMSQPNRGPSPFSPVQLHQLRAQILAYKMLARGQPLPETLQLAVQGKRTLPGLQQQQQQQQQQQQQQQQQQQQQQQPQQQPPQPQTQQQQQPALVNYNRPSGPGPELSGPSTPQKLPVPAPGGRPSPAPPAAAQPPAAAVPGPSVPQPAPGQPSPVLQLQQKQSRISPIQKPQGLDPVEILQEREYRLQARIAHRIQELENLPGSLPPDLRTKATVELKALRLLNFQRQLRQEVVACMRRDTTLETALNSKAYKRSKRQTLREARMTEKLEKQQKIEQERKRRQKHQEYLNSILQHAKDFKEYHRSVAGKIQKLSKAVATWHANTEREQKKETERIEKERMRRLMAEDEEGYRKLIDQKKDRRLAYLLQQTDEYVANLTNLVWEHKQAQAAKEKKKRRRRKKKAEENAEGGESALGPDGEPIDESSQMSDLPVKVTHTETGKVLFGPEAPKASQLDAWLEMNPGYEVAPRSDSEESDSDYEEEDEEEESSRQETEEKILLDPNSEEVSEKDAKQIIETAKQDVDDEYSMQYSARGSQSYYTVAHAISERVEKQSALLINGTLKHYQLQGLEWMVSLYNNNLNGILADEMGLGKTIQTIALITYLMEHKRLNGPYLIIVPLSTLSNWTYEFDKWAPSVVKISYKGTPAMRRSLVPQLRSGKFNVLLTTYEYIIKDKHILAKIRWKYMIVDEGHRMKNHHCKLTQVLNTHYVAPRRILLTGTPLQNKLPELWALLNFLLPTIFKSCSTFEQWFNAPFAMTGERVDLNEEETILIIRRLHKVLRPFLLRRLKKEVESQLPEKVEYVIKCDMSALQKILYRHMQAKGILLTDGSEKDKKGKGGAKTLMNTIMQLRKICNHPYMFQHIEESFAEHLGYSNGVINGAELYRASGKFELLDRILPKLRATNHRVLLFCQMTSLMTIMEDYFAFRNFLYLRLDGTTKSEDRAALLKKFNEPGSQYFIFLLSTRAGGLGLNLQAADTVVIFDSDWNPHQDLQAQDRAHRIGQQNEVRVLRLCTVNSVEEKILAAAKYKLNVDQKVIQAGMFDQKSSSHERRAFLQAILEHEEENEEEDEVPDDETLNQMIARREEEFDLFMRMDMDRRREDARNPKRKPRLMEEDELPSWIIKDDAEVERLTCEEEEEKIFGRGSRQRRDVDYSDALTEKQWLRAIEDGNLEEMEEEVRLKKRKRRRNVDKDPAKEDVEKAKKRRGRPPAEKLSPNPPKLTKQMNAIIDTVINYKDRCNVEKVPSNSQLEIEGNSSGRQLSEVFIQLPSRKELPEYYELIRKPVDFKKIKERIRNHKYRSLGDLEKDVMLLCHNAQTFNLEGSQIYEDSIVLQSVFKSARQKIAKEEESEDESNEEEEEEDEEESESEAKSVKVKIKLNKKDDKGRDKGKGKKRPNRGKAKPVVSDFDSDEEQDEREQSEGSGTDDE
Procedure, shortened: as §1

T1 sequence (P51532 whole entry, the tested form may be a part): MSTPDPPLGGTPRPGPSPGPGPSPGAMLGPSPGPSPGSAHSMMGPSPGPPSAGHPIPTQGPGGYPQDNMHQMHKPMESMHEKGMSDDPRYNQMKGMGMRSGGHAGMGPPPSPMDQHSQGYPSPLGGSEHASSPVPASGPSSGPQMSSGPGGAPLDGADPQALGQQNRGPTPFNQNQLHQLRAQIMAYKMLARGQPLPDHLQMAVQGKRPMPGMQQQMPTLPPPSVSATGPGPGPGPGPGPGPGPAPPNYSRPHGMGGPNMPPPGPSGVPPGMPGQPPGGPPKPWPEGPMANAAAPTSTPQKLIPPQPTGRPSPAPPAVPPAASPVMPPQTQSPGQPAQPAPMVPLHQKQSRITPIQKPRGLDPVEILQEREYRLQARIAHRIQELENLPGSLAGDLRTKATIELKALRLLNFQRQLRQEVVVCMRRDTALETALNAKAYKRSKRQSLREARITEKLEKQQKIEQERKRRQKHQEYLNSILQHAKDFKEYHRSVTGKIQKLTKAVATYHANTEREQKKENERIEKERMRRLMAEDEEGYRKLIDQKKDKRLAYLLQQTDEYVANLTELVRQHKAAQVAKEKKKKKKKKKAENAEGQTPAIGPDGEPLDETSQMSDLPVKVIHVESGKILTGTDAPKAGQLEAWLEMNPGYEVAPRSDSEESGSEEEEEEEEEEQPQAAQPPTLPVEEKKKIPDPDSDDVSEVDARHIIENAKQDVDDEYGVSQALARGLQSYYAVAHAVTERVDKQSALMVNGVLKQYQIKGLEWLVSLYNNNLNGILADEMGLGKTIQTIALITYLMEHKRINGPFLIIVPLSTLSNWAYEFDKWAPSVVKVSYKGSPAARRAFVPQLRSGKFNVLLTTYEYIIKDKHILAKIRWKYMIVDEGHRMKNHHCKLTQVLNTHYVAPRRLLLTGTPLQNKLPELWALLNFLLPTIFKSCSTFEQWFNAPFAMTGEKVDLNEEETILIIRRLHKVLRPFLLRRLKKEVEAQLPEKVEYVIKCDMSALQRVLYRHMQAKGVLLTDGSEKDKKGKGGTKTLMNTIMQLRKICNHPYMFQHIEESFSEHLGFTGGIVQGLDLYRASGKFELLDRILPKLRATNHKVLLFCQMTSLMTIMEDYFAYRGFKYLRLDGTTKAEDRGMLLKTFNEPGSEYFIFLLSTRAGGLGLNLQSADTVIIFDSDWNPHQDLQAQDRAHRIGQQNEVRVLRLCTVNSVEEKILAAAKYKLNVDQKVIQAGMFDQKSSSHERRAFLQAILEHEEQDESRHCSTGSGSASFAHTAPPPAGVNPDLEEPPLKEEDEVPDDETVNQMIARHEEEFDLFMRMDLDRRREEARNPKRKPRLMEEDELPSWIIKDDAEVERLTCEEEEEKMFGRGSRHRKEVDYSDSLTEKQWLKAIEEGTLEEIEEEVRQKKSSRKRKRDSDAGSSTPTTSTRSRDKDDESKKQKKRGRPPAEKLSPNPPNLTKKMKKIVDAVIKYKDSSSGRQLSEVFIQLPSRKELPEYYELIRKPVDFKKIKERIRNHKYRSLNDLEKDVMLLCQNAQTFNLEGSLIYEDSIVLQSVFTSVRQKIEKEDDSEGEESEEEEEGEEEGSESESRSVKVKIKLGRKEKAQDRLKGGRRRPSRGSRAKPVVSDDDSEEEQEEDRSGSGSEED

Row | DC50 [1] | inhibition at 1 µM ([1]; @ 1 μM) | DC50 [2] | SMARCA2 % Degradation @ 1 μM ([2]; @ 1 μM) | inhibition at 1 µM ([1]; 1 μM) | SMARCA2 % Degradation @ 1 μM ([2]; 1 μM) | Structure (SMILES)
1 | 500 to 5000 nM | 30 to 70% | 50 to 500 nM | ++ (++=30-70%) |  |  | Nc1nnc(-c2ccccc2O)cc1N1CCCN(c2ccnc(C#CCN3C[C@@H]4C[C@H]3CO4)n2)CC1 [Compound P-377, 0-(5-{4-[2-(3-{(1S,4S)-2-oxa-5-azabicyclo[2.2.1]hept-5-yl}-1-propynyl)-4-pyrimidinyl]-1,4-diazepan-1-y1}-6-amino-3-pyridazinyl)phenol]
2 | 50 to 500 nM | 30 to 70% | 50 to 500 nM | +++ (+++=>70%) |  |  | COC1CCN(CC#Cc2nccc(N3CCCN(c4cc(-c5ccccc5O)nnc4N)CC3)n2)CC1 [Compound P-378, 0-[6-amino-5-(4-{2-[3-(4-methoxy-1-piperidyl)-1-propynyl]-4-pyrimidinyl}-1,4-diazepan-1-yl)-3-pyridazinyl]phenol]
3 | 50 to 500 nM | 30 to 70% | 50 to 500 nM | +++ (+++=>70%) |  |  | Nc1nnc(-c2ccccc2O)cc1N1CCCN(c2ccnc(C#CCN3CCCOCC3)n2)CC1 [Compound P-379, 0-[6-amino-5-(4-{2-[3-(1,4-oxazepan-4-yl)-1-propynyl]-4-pyrimidinyl}-1,4-diazepan-1-yl)-3-pyridazinyl]phenol]
4 | 500 to 5000 nM |  | 500 to 5000 nM |  | < 30% | ++ (++=30-70%) | C[C@@H]1CN(CC#Cc2nccc(N3CCCN(c4cc(-c5ccccc5O)nnc4N)CC3)n2)C[C@H](c2ccccc2)O1 [Compound P-380, 0-{5-[4-(2-{3-[(2R,6S)-2-methyl-6-phenyl-4-morpholinyl]-1-propynyl}-4-pyrimidinyl)-1,4-diazepan-1-yl]-6-amino-3-pyridazinyl}phenol]
5 | < 50 nM |  | < 50 nM |  | 30 to 70% | +++ (+++=>70%) | CC(C)OCC#Cc1cc(N2CCN(c3cc(-c4ccccc4O)nnc3N)CC[C@H]2C)ccn1 [Compound P-383, 0-(5-{(R)-4-[2-(3-isopropoxy-1-propynyl)-4-pyridyl]-5-methyl-1,4-diazepan-1-yl}-6-amino-3-pyridazinyl)phenol]
6 | 50 to 500 nM |  | 50 to 500 nM |  | < 30% | ++ (++=30-70%) | CN(C)CC#Cc1cc(OC2CCN(c3cc(-c4ccccc4O)nnc3N)CC2)ccn1 [Compound P-384, 0-[6-amino-5-(4-{2-[3-(dimethylamino)-1-propynyl]-4-pyridyloxy}-1-piperidyl)-3-pyridazinyl]phenol]
7 | 50 to 500 nM |  | 50 to 500 nM |  | > 70% | +++ (+++=>70%) | CN(C)CC#Cc1nc(N2CCCN(c3cc(-c4ccccc4O)nnc3N)CC2)ccc1C#N [Compound P-385, 6-{4-[3-amino-6-(o-hydroxyphenyl)-4-pyridazinyl]-1,4-diazepan-1-y1}-2-[3-(dimethylamino)-1-propynyl]nicotinonitrile]
8 | < 50 nM |  | < 50 nM |  |  | + (+=<30%) | CN(C)CC#Cc1cc(OC2CN(c3cc(-c4ccccc4O)nnc3N)C2)ccn1 [Compound P-386, 0-[6-amino-5-(3-{2-[3-(dimethylamino)-1-propynyl]-4-pyridyloxy}-1-azetidinyl)-3-pyridazinyl]phenol]

Row | Structure (SMILES) | DC50 [1] | inhibition at 1 µM ([1]; @ 1 μM) | DC50 [2] | SMARCA2 % Degradation @ 1 μM ([2]; @ 1 μM) | inhibition at 1 µM ([1]; 1 μM) | SMARCA2 % Degradation @ 1 μM ([2]; 1 μM)
9 | CN(C)CC#Cc1nccc(N2C3CCC2CN(c2cnnc(-c4ccccc4O)c2)C3)n1 [Compound P-381, 0-[5-(8-{2-[3-(dimethylamino)-1-propynyl]-4-pyrimidinyl}-3,8-diazabicyclo[3.2.1]oct-3-yl)-3-pyridazinyl]phenol] | > 5000 nM |  | 50 to 500 nM |  |  | ++ (++=30-70%)
10 | CN(C)CC#Cc1cc(N2C3CCC2CN(c2cc(-c4ccccc4O)nnc2N)CC3)ccn1 (centres unmarked) [Compound P-382, 0-[6-amino-5-(9-{2-[3-(dimethylamino)-1-propynyl]-4-pyridyl}-3,9-diazabicyclo[4.2.1]non-3-y1)-3-pyridazinyl]phenol] | < 50 nM |  | < 50 nM |  | > 70% | +++ (+++=>70%)

From patent US20260265238A1, “COMPOUNDS AND PHARMACEUTICAL COMPOSITIONS THAT DEGRADE SWI/SNF-RELATED MATRIX-ASSOCIATED ACTIN-DEPENDENT REGULATOR OF CHROMATIN SUBFAMILY A” (Plexium, Inc., priority 2023, published 2026)
